In PubChem BioAssay AID1259407 (Chemical Carcinogenesis Research Information System (CCRIS), 2018):
Calls of active or inactive are those of the source. No rule for the calls is given here.

Tested on: CCRIS mutagenicity, Ames/micronucleus/aberration tests
Experiment: CCRIS mutagenicity studies
[1] = Test System: AMES SALMONELLA TYPHIMURIUM, Strain/Indicator: TA98, Metabolic Activation: NONE, Method: STANDARD PLATE
[2] = Test System: AMES SALMONELLA TYPHIMURIUM, Strain/Indicator: TA100, Metabolic Activation: NONE, Method: STANDARD PLATE
[3] = Test System: AMES SALMONELLA TYPHIMURIUM, Strain/Indicator: TA98, Metabolic Activation: NONE, Method: PREINCUBATION
[4] = Test System: AMES SALMONELLA TYPHIMURIUM, Strain/Indicator: TA100, Metabolic Activation: NONE, Method: PREINCUBATION
[5] = Test System: AMES SALMONELLA TYPHIMURIUM, Strain/Indicator: TA1535, Metabolic Activation: NONE, Method: PREINCUBATION
[6] = Test System: AMES SALMONELLA TYPHIMURIUM, Strain/Indicator: TA100, Metabolic Activation: S-9, Method: STANDARD PLATE
[7] = Test System: AMES SALMONELLA TYPHIMURIUM, Strain/Indicator: TA1535, Metabolic Activation: NONE, Method: STANDARD PLATE

## CC(=O)O[C@H]1[C@@H]2CC(C)(C)CC2=C(C=O)[C@]2(C=O)C[C@]12C
[1]
  mutagenic call: inactive; negative
[2]
  mutagenic call: inactive; negative
Test System: AMES SALMONELLA TYPHIMURIUM, Strain/Indicator: TA2637, Metabolic Activation: NONE, Method: STANDARD PLATE
  mutagenic call: inactive; negative

## Cc1cc2nc3c(=O)[nH]c(=O)nc-3n(C[C@H](O)[C@H](O)[C@H](O)CO)c2cc1C
End Point: IN VIVO MICRONUCLEUS, Test System: BONE MARROW POLYCHROMATIC ERYTHROCYTES, Species: MOUSE, Strain/Sex: DDY/MALE, Route: IP
  mutagenic call: inactive; negative
Test System: AMES SALMONELLA TYPHIMURIUM, Strain/Indicator: TA97A, Metabolic Activation: NONE, Method: PREINCUBATION
  mutagenic call: inactive; negative
Test System: AMES SALMONELLA TYPHIMURIUM, Strain/Indicator: TA97A, Metabolic Activation: RAT, CECAL CELL-FREE EXTRACT, Method: PREINCUBATION
  mutagenic call: inactive; negative
Test System: AMES SALMONELLA TYPHIMURIUM, Strain/Indicator: TA97A, Metabolic Activation: RAT, LIVER, S9, AROCLOR 1254, Method: PREINCUBATION
  mutagenic call: inactive; negative
[3]
  mutagenic call: inactive; negative
Test System: AMES SALMONELLA TYPHIMURIUM, Strain/Indicator: TA98, Metabolic Activation: RAT, CECAL CELL-FREE EXTRACT, Method: PREINCUBATION
  mutagenic call: inactive; negative
Test System: AMES SALMONELLA TYPHIMURIUM, Strain/Indicator: TA98, Metabolic Activation: RAT, LIVER, S9, AROCLOR 1254, Method: PREINCUBATION
  mutagenic call: inactive; negative
[4]
  mutagenic call: inactive; negative
Test System: AMES SALMONELLA TYPHIMURIUM, Strain/Indicator: TA100, Metabolic Activation: RAT, CECAL CELL-FREE EXTRACT, Method: PREINCUBATION
  mutagenic call: inactive; negative
Test System: AMES SALMONELLA TYPHIMURIUM, Strain/Indicator: TA100, Metabolic Activation: RAT, LIVER, S9, AROCLOR 1254, Method: PREINCUBATION
  mutagenic call: inactive; negative
Test System: AMES SALMONELLA TYPHIMURIUM, Strain/Indicator: TA102, Metabolic Activation: RAT, LIVER, S9, AROCLOR 1254, Method: PREINCUBATION
  mutagenic call: inactive; negative

## O=C(O)CCCCCCCCC(=O)O
[3]
  mutagenic call: inactive; negative
Test System: AMES SALMONELLA TYPHIMURIUM, Strain/Indicator: TA98, Metabolic Activation: RAT LIVER S-9, PHENOBARBITAL AND BETA-NAPHTHOFLAVONE, Method: PREINCUBATION
  mutagenic call: inactive; negative
Test System: AMES SALMONELLA TYPHIMURIUM, Strain/Indicator: TA98, Metabolic Activation: RAT, LIVER, S-9, KC 500, Method: PREINCUBATION
  mutagenic call: inactive; negative
[4]
  mutagenic call: inactive; negative
Test System: AMES SALMONELLA TYPHIMURIUM, Strain/Indicator: TA100, Metabolic Activation: RAT LIVER S-9, PHENOBARBITAL AND BETA-NAPHTHOFLAVONE, Method: PREINCUBATION
  mutagenic call: inactive; negative
Test System: AMES SALMONELLA TYPHIMURIUM, Strain/Indicator: TA100, Metabolic Activation: RAT, LIVER, S-9, KC 500, Method: PREINCUBATION
  mutagenic call: inactive; negative
[5]
  mutagenic call: inactive; negative
Test System: AMES SALMONELLA TYPHIMURIUM, Strain/Indicator: TA1535, Metabolic Activation: RAT LIVER S-9, PHENOBARBITAL AND BETA-NAPHTHOFLAVONE, Method: PREINCUBATION
  mutagenic call: inactive; negative
Test System: AMES SALMONELLA TYPHIMURIUM, Strain/Indicator: TA1535, Metabolic Activation: RAT, LIVER, S-9, KC 500, Method: PREINCUBATION
  mutagenic call: inactive; negative
Test System: AMES SALMONELLA TYPHIMURIUM, Strain/Indicator: TA1537, Metabolic Activation: NONE, Method: PREINCUBATION
  mutagenic call: inactive; negative
Test System: AMES SALMONELLA TYPHIMURIUM, Strain/Indicator: TA1537, Metabolic Activation: RAT LIVER S-9, PHENOBARBITAL AND BETA-NAPHTHOFLAVONE, Method: PREINCUBATION
  mutagenic call: inactive; negative
Test System: AMES SALMONELLA TYPHIMURIUM, Strain/Indicator: TA1537, Metabolic Activation: RAT, LIVER, S-9, KC 500, Method: PREINCUBATION
  mutagenic call: inactive; negative
Test System: AMES SALMONELLA TYPHIMURIUM, Strain/Indicator: TA1538, Metabolic Activation: NONE, Method: PREINCUBATION
  mutagenic call: inactive; negative
Test System: AMES SALMONELLA TYPHIMURIUM, Strain/Indicator: TA1538, Metabolic Activation: RAT, LIVER, S-9, KC 500, Method: PREINCUBATION
  mutagenic call: inactive; negative
Test System: E. COLI, Strain/Indicator: WP2UVRA/PKM101, Metabolic Activation: NONE, Method: PREINCUBATION
  mutagenic call: inactive; negative
Test System: E. COLI, Strain/Indicator: WP2UVRA/PKM101, Metabolic Activation: RAT LIVER S-9, PHENOBARBITAL AND BETA-NAPHTHOFLAVONE, Method: PREINCUBATION
  mutagenic call: inactive; negative
Test System: E. COLI, Strain/Indicator: WP2 UVRA, Metabolic Activation: NONE, Method: PREINCUBATION
  mutagenic call: inactive; negative
Test System: E. COLI, Strain/Indicator: WP2 UVRA, Metabolic Activation: RAT, LIVER, S-9, KC 500, Method: PREINCUBATION
  mutagenic call: inactive; negative

## CC(=O)c1ccco1
[1]
  mutagenic call: inactive; negative
Test System: AMES SALMONELLA TYPHIMURIUM, Strain/Indicator: TA98, Metabolic Activation: S-9, Method: STANDARD PLATE
  mutagenic call: active; positive
[2]
  mutagenic call: inactive; negative
[6]
  mutagenic call: inactive; negative

## CC(=O)O[C@H]1C[C@@H]2C(COC(=O)CC(C)C)=CO[C@@H](OC(=O)CC(C)C)[C@@H]2[C@@]12CO2
[1]
  mutagenic call: inactive; negative
Test System: AMES SALMONELLA TYPHIMURIUM, Strain/Indicator: TA98, Metabolic Activation: RAT, LIVER, S-9, AROCLOR 1254, Method: STANDARD PLATE
  mutagenic call: inactive; negative
[2]
  mutagenic call: inactive; negative
Test System: AMES SALMONELLA TYPHIMURIUM, Strain/Indicator: TA100, Metabolic Activation: RAT, LIVER, S-9, AROCLOR 1254, Method: STANDARD PLATE
  mutagenic call: active; positive
[7]
  mutagenic call: inactive; negative
Test System: AMES SALMONELLA TYPHIMURIUM, Strain/Indicator: TA1535, Metabolic Activation: RAT, LIVER, S-9, AROCLOR 1254, Method: STANDARD PLATE
  mutagenic call: inactive; negative
Test System: AMES SALMONELLA TYPHIMURIUM, Strain/Indicator: TA1537, Metabolic Activation: NONE, Method: STANDARD PLATE
  mutagenic call: inactive; negative
Test System: AMES SALMONELLA TYPHIMURIUM, Strain/Indicator: TA1537, Metabolic Activation: RAT, LIVER, S-9, AROCLOR 1254, Method: STANDARD PLATE
  mutagenic call: inactive; negative
Test System: E. COLI, Strain/Indicator: WP2, Metabolic Activation: NONE, Method: STANDARD PLATE
  mutagenic call: inactive; negative
Test System: E. COLI, Strain/Indicator: WP2, Metabolic Activation: RAT, LIVER, S-9, AROCLOR 1254, Method: STANDARD PLATE
  mutagenic call: active; positive
Test System: E. COLI, Strain/Indicator: WP2 UVRA, Metabolic Activation: NONE, Method: STANDARD PLATE
  mutagenic call: active; positive
Test System: E. COLI, Strain/Indicator: WP2 UVRA, Metabolic Activation: RAT, LIVER, S-9, AROCLOR 1254, Method: STANDARD PLATE
  mutagenic call: active; positive

## CCCCC1CO1 (stereo not given)
[2]
  mutagenic call: inactive; negative
[7]
  mutagenic call: inactive; negative

## COc1ccc(CCC2CO2)cc1 (stereo not given)
[4]
  mutagenic call: active; positive
[2]
  mutagenic call: active; positive
[5]
  mutagenic call: active; positive
[7]
  mutagenic call: active; positive

## Cc1ccc2c(c1)c(=NC(=O)c1ccc([N+](=O)[O-])cc1)sn2C(=O)c1ccc([N+](=O)[O-])cc1
[6]
  mutagenic call: active; positive
